Source: PubChem BioAssay AID1918956 (Molecular Pharmacology Branch, DTP, NCI, 2023)
pIC50: −log10 of the molar value. Values joined by “and” are separate entries in the source; they are usually repeats but may differ in a detail not shown here. Identical values can stand only once. Each block holds one compound with its values, some of them ahead of it.

Tested on: OVCAR-5 complex spheroids, viability
Experiment: Anticancer human tumor OVCAR-5 cell line growth inhibition;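 further: spheroids exposed to agents for seven days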;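 on viability, T/C: 100% = DMSO vehicle control wells viability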
Conditions: for viability, T/C: stronger effect = lower value
Summary of the method: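 Multicellular complex spheroids of tumor cells with human endothelial cells (HUVEC) and mesenchymal stem cells; the LSD1 inhibitor iadademstat was combined with standard-of-care or investigational agents. Top concentration at or near clinical Cmax, half-log dilutions; final DMSO ≤0.25%.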

[1] = curve of first compound, second compound 0.1 µM
[2] = curve of first compound, second compound 0.316 µM
[3] = curve of first compound, second compound 1 µM
[4] = curve of first compound, second compound 3.16 µM
[5] = curve of first compound, second compound 10 µM
[6] = second compound 0.1 µM, first compound 0.0316 µM
[7] = second compound 0.1 µM, first compound 0.1 µM
[8] = second compound 0.316 µM, first compound 0.0316 µM
[9] = second compound 0.316 µM, first compound 0.1 µM
[10] = second compound 1 µM, first compound 0.0316 µM
[11] = second compound 1 µM, first compound 0.1 µM
[12] = second compound 3.16 µM, first compound 0.0316 µM
[13] = second compound 3.16 µM, first compound 0.1 µM
[14] = second compound 10 µM, first compound 0.0316 µM
[15] = second compound 10 µM, first compound 0.1 µM

pIC50 (curve of compound): 5.79 and 6.02
Structure (SMILES): CC1COCCN1c1cc(C2(S(C)(=N)=O)CC2)nc(-c2ccnc3[nH]ccc23)n1 (centres undefined)
viability, T/C (compound 0.0316 µM): 106% and 102%
viability, T/C (compound 0.1 µM): 110% and 101%
viability, T/C (compound 0.316 µM): 90.1% and 76%
viability, T/C (compound 1 µM): 57.5% and 48.9%
viability, T/C (compound 3.16 µM): 41.4% and 34.1%
viability, T/C (compound 10 µM): 35.5% and 25.4%

pIC50 (compound alone, run of 12/07/2021): < 5.00
Structure (SMILES): NC1CC1c1ccc(-c2cccc(O)c2)cc1 (centres undefined)
viability, T/C (compound 10 µM): 89.8% [middle of 25 runs]

Structure (SMILES): Cn1ncnc1C1c2n[nH]c(=O)c3cc(F)cc(c23)NC1c1ccc(F)cc1 (centres undefined) + NC1CC1c1ccc(-c2cccc(O)c2)cc1
pIC50 [1]: < 7.00
pIC50 [2]: < 7.00
pIC50 [3]: < 7.00
pIC50 [4]: < 7.00
pIC50 [5]: < 7.00
viability, T/C (second compound 0.1 µM, first compound 0.000316 µM): 101%
viability, T/C (second compound 0.1 µM, first compound 0.001 µM): 94.1%
viability, T/C (second compound 0.1 µM, first compound 0.00316 µM): 85.4%
viability, T/C (second compound 0.1 µM, first compound 0.01 µM): 95.3%
viability, T/C [6]: 83.2%
viability, T/C [7]: 77.8%
viability, T/C (second compound 0.316 µM, first compound 0.000316 µM): 94.6%
viability, T/C (second compound 0.316 µM, first compound 0.001 µM): 99.3%
viability, T/C (second compound 0.316 µM, first compound 0.00316 µM): 95.1%
viability, T/C (second compound 0.316 µM, first compound 0.01 µM): 89.9%
viability, T/C [8]: 93%
viability, T/C [9]: 91.9%
viability, T/C (second compound 1 µM, first compound 0.000316 µM): 81.3%
viability, T/C (second compound 1 µM, first compound 0.001 µM): 91.4%
viability, T/C (second compound 1 µM, first compound 0.00316 µM): 89.7%
viability, T/C (second compound 1 µM, first compound 0.01 µM): 79.5%
viability, T/C [10]: 92.8%
viability, T/C [11]: 85.6%
viability, T/C (second compound 3.16 µM, first compound 0.000316 µM): 88.4%
viability, T/C (second compound 3.16 µM, first compound 0.001 µM): 94.2%
viability, T/C (second compound 3.16 µM, first compound 0.00316 µM): 88.1%
viability, T/C (second compound 3.16 µM, first compound 0.01 µM): 81.9%
viability, T/C [12]: 74.3%
viability, T/C [13]: 73.2%
viability, T/C (second compound 10 µM, first compound 0.000316 µM): 82.6%
viability, T/C (second compound 10 µM, first compound 0.001 µM): 96.6%
viability, T/C (second compound 10 µM, first compound 0.00316 µM): 85.5%
viability, T/C (second compound 10 µM, first compound 0.01 µM): 78.2%
viability, T/C [14]: 72.6%
viability, T/C [15]: 80.3%

Structure (SMILES): O=C(c1cc(Cc2n[nH]c(=O)c3ccccc23)ccc1F)N1CCN(C(=O)C2CC2)CC1 + NC1CCC(NC2CC2c2ccccc2)CC1
pIC50 [1]: < 5.00
pIC50 [2]: < 5.00
pIC50 [3]: < 5.00
pIC50 [4]: < 5.00
pIC50 [5]: < 5.00
viability, T/C [6]: 110%
viability, T/C [7]: 116%
viability, T/C (second compound 0.1 µM, first compound 0.316 µM): 104%
viability, T/C (second compound 0.1 µM, first compound 1 µM): 102%
viability, T/C (second compound 0.1 µM, first compound 3.16 µM): 92.9%
viability, T/C (second compound 0.1 µM, first compound 10 µM): 90.5%
viability, T/C [8]: 101%
viability, T/C [9]: 105%
viability, T/C (second compound 0.316 µM, first compound 0.316 µM): 105%
viability, T/C (second compound 0.316 µM, first compound 1 µM): 101%
viability, T/C (second compound 0.316 µM, first compound 3.16 µM): 98.2%
viability, T/C (second compound 0.316 µM, first compound 10 µM): 89.7%
viability, T/C [10]: 103%
viability, T/C [11]: 103%
viability, T/C (second compound 1 µM, first compound 0.316 µM): 106%
viability, T/C (second compound 1 µM, first compound 1 µM): 88%
viability, T/C (second compound 1 µM, first compound 3.16 µM): 95.3%
viability, T/C (second compound 1 µM, first compound 10 µM): 82%
viability, T/C [12]: 95.6%
viability, T/C [13]: 101%
viability, T/C (second compound 3.16 µM, first compound 0.316 µM): 93%
viability, T/C (second compound 3.16 µM, first compound 1 µM): 100%
viability, T/C (second compound 3.16 µM, first compound 3.16 µM): 88.5%
viability, T/C (second compound 3.16 µM, first compound 10 µM): 74.2%
viability, T/C [14]: 92.4%
viability, T/C [15]: 97%
viability, T/C (second compound 10 µM, first compound 0.316 µM): 96.3%
viability, T/C (second compound 10 µM, first compound 1 µM): 83.2%
viability, T/C (second compound 10 µM, first compound 3.16 µM): 79%
viability, T/C (second compound 10 µM, first compound 10 µM): 61.1%
